Test results reported in PMC5522071, “Preclinical development of G1T38: A novel, potent and selective inhibitor of cyclin dependent kinases 4/6 for use as an oral antineoplastic in patients with CDK4/6 sensitive tumors” (Oncotarget, 2017).
Like-named read-outs stand apart in the source and are kept apart here. Each block holds one molecule with its values, some of them ahead of it.

Experiments:
H1975 xenograft = assay: H1975 NSCLC xenograft model; format: in vivo, mice
Description: To evaluate the efficacy of G1T38 in combination with EGFR inhibitors, the H1975 xenograft model was utilized. H1975 is a human NSCLC that harbors the […] mutations rendering resistance to erlotinib treatment.
Afatinib is an irreversible second generation pan-ErbB inhibitor developed as a first-line treatment of patients with metastatic NSCLC whose tumors harbor EGFR mutations or deletions as well as in patients with metastatic disease that progressed after platinum-based chemotherapy.
Female NCI Ath/nu mice were implanted with H1975 NSC lung adenocarcinoma model. Once tumors reached an average size of 100- 150 mm^3, mice were randomized into treatment cohorts. Mice were orally administered daily afatinib (20 mg/kg, Genentech/OSI), erlotinib (70 mg/kg, LC Labs), or G1T38 (50 or 100 mg/kg), as single agents or in combination (G1T38 + erlotinib or G1T38 + afatinib) for the duration of the study. Tumors were measured twice weekly until mice reached tumor burden of 1500 mm^3.

ER+ MCF7 xenograft = assay: MCF-7 breast cancer xenograft model; format: in vivo, mice; details: for tumor growth inhibition (TGI): after 27 days of treatment
Method: Tumors were measured every 3 to 4 days during treatment for up to 20 days post-treatment. […] South Texas Accelerated Research Therapeutics (START; San Antonio, Texas) evaluated the antitumor activity of G1T38 in a START Cell-Based Xenograft (START-CBX) tumor model, MCF-7, representing human breast cancer. Data collected from this efficacy study included animal weights, observations, and tumor dimensions. This information was used to determine agent tolerability based on weight change and gross physiologic changes, and anticancer activity based on tumor growth inhibition or regression. Study endpoint was Day 60. MCF-7 cells were harvested from culture and injected into immune-deficient mice and the study initiated at a mean tumor volume of approximately 150-250 mm^3. […] Tumor growth inhibition (%TGI) was calculated using the following equation: %TGI=(1-(((TVtmtfinal-TVtmtinitial))/((AVERAGE(TVctlfinal))-(AVERAGE(TVctlinital)))))*100.

neutrophils = assay: Peripheral blood analysis, 28 days daily oral dosing
[1] = cited from earlier work
[2] = parameters: method as in earlier work; details: Rat; cited from earlier work
[3] = parameters: method as in earlier work; details: Dog; cited from earlier work
7-day continuous oral PK = details: C57BL/6, mouse, plasma
[4] = parameters: method as in earlier work; details: Mouse; cited from earlier work

Compound: C#Cc1cccc(Nc2ncnc3cc(OCCOC)c(OCCOC)cc23)c1 [erlotinib, reference compound]
difference from vehicle treated mice (H1975 xenograft; 70 mg/kg daily): no significant difference

Compound: CC/C(=C(\c1ccccc1)c1ccc(/C=C/C(=O)O)cc1)c1ccccc1 [GW5638, reference compound]
TGI as single agents (GW5638 study) (ER+ MCF7 xenograft; G1T38 25 or 50 mg/kg alone, GW5638 25 mg/kg alone): modest TGI

decrease in neutrophils compared with G1T38 (neutrophils): similar
concentration at 24 h (7-day continuous oral PK): ~600 nM
Compound: CC(=O)c1c(C)c2cnc(Nc3ccc(N4CCNCC4)cn3)nc2n(C2CCCC2)c1=O [palbociclib]
T1/2 ([1]; Human): 29 h
half-life ([1]; in humans): > 24 h
T1/2 [2]: 2.4 to 4.9 h
T1/2 [3]: 20.7 h
tumor growth inhibition (TGI) (ER+ MCF7 xenograft; 10 mg/kg once daily oral): 18%
tumor growth inhibition (TGI) (ER+ MCF7 xenograft; 50 mg/kg once daily oral): 66%
time to tumor regression (ER+ MCF7 xenograft; 100 mg/kg daily oral): ≤ 10 days
tumor growth inhibition (TGI) (ER+ MCF7 xenograft; 100 mg/kg once daily oral): 87%
T1/2 [4]: 2.5 to 4.2 h

Compound: CN(C)C/C=C/C(=O)Nc1cc2c(Nc3ccc(F)c(Cl)c3)ncnc2cc1O[C@H]1CCOC1 [afatinib, reference compound]
time at which tumors began to regrow (H1975 xenograft; afatinib only cohort, 20 mg/kg): ≤ 14 days
